In general, IC50 refers to the concentration needed to halve the response being measured.

For assay [1], the target named is T1, ERK5 (activated catalytic domain) (Homo sapiens, UniProt Q13164).
T1 construct: purchased CarnaBiosciences 04-146
The assay can be described thus: Cell-Free Assay of ERK5 Inhibition (Time-Resolved FRET, 4EBP1 peptide phosphorylation). Type of assay: biochemical. The method, then: (§1) Two assays were performed to assess the ERK5 inhibitory activity of compounds of the Examples, a cell-based assay and a cell-free biochemical assay. Where repeat measurements were taken, the value reported is a mean average.
An assay was performed to measure the capacity of each compound to inhibit ERK5 enzymatic activity. Compound potency was evaluated by Time-Resolved Forster Resonance Energy Transfer (FRET system). The activated catalytic domain of protein ERK5 (CarnaBiosciences #04-146) was mixed at 4 nM with varying concentrations of compound and incubated for 30 minutes at room temperature. A mixture of 1 mM ATP and 1 μM biotinylated synthetic peptide was added (Biosyntan GmbH). This synthetic peptide represents amino acids 30-52 of Eukaryotic translation initiation factor 4E-binding protein 1 (see, e.g., the sequence under accession No. NP_004086.1) biotinylated at the N-terminus. After 30 minutes at 37° C., the peptide phosphorylation by ERK5 was measured by addition of FRET reagents consisting of 12.5 μg/ml Streptavidin-XL665, 1 nM Anti-P-4EBP1 antibody and 300 ng/ml Anti-rabbit-K antibody. Following 90 minutes at room temperature fluorescent signals were read on the Pherastar FSX multimod detector from BMG Labtech (Exc° 340 nm, Em1 620 nm, Em2 665 nm). The IC50 values represent the concentration of compound which inhibits the measurable fluorescence signal by 50% as compared to the DMSO only control.

The next assay concerns the target T2, ERK5 (Homo sapiens, UniProt Q13164).
T2 construct: MEF2-luciferase reporter
The assay can be described thus: Inhibition of Cellular ERK5 Activity (cell-based assay, MEF2 luciferase reporter in SN12C cells). Conditions: renal cancer cell line SN12C, doxycycline-induced MEKSDD, mean where repeated. The method, then: as §1
The renal cancer cell line SN12C was transduced by a lentivirus pGreenFire1 MEF2 EF1 Neo (ref TR030VA-N) from SBI using standard infection protocol. pGreenFire1 MEF2 EF1 Neo allows the expression of luciferase gene under the control of minimal promoter with MEF2 transcriptional response elements. Cells harboring the reporter construct were selected by geneticin treatment. The selected cells were then transposed by a piggyback based plasmid pCM4007 allowing the expression of constitutively activated MEKSDD under control of TREG3 promoter, a doxycycline regulated promoter. Transposed cells were selected by puromycin treatment. Upon doxycycline treatment (1p g/ml) MEKSDD was expressed. MEKSDD activates ERK5 that phosphorylates MEF2C protein. Activated MEF2C protein can bind to its transcriptional response elements. Then the luciferase is expressed. In a 96-well plate (96F nuncleon refl37101 thermofisher), 50,000 cells were inoculated in 142.5 μl of RPMI medium containing 10% fetal calf serum, 1% glutamine, and 1 μg/ml doxycycline. After 24 hours, compounds were added in 7.5 μl culture medium (with 2% DMSO to give a final concentration of 0.1%) in order to obtain the desired concentration (0.3-1000 nM). The luciferase activity was measured using the Kit Bright Glo Luminescent Cell Assay Cat E2610 (Promega) according to the manufacturer's protocol. Luminescence was determined using 0.2 second reading/well using a Tecan SPARK. IC50 values were calculated using XLFIT5 for Microsoft Excel using method 205. The IC50 values represent the concentration of compound which inhibits the measurable luminescence signal by 50% as compared to DMSO-treated control cells.
On the technique in general: A reporter such as luciferase makes a cellular process visible.

The mark [2] stands for this setting: ERK5 catalytic domain 4 nM, 1 mM ATP, 1 μM biotinylated 4EBP1 peptide, 30 min at 37° C., mean where repeated, read-out: Cell-free assay (IC50 in nM).

Read-outs that look alike come from different tables or passages of the source.

T2 sequence (Q13164 whole entry): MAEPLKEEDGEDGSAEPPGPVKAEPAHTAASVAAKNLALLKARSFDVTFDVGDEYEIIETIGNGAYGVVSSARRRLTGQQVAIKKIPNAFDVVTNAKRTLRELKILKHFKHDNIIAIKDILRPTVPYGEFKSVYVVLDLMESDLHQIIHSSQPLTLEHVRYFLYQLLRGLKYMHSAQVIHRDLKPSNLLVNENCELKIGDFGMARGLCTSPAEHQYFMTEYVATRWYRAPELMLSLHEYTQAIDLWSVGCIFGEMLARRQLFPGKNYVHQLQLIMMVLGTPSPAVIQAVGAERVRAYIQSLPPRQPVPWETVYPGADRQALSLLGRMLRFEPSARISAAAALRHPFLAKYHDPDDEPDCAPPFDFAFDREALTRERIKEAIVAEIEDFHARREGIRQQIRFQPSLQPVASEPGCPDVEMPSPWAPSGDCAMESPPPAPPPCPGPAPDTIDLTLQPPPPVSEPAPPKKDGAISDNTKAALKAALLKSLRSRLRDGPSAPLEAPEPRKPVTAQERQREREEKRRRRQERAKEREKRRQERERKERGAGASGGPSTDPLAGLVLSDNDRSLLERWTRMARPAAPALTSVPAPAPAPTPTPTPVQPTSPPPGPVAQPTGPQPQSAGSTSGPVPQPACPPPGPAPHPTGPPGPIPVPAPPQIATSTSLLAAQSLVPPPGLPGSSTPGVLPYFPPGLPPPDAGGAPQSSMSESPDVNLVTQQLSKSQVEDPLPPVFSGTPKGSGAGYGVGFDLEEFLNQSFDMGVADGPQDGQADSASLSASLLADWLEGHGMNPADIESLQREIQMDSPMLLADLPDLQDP
T1 sequence (Q13164 55-347 limits assumed): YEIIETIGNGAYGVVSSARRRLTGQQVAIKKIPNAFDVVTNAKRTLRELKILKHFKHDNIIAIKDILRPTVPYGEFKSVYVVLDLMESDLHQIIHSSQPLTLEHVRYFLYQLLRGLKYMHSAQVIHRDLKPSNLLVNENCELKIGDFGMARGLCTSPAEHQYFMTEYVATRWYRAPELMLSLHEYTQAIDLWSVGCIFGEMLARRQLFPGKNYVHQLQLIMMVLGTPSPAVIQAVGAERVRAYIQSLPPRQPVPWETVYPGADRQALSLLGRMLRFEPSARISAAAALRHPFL

Consider `O=C(c1ccc(OC(F)(F)F)cc1O)N1CCC(n2c(=O)[nH]c3ncc(C4CCOCC4)cc32)CC1` [Example 18, 1-[1-[2-Hydroxy-4-(trifluoromethoxy)benzoyl]-4-piperidyl]-6-tetrahydropyran-4-yl-3H-imidazo[4,5-b]pyridin-2-one], for which the IC50 in assay [1] (setting [2]) was 54 nM; in assay [1] (footnote: repeat measurement, mean average value, read-out: Cell-free assay IC50, repeat measurement) it was 82 nM; at ERK5, 90 nM.

As to `O=C(c1ccc(S(F)(F)(F)(F)F)cc1)N1CCC(n2c(=O)[nH]c3ncc(C4CCOCC4)cc32)CC1` [Example 19, 1-[1-[4-(Pentafluoro-λ^6-sulfanyl)benzoyl]-4-piperidyl]-6-tetrahydropyran-4-yl-3H-imidazo[4,5-b]pyridin-2-one], the values for the IC50 (in assay [1] (setting [2]); at ERK5) were 257 nM and 199 nM, respectively.

Regarding `Cc1nc2[nH]c(=O)n(C3CCN(C(=O)c4ccc(OC(F)(F)F)cc4N)CC3)c2cc1C1CCOCC1` [Example 20, 1-[1-[2-amino-4-(trifluoromethoxy)benzoyl]-4-piperidyl]-5-methyl-6-tetrahydropyran-4-yl-3H-imidazo[4,5-b]pyridin-2-one], the values for the IC50 (in assay [1] (setting [2]); at ERK5) were 1100 nM and 486 nM, respectively.

`Nc1cc(OC(F)(F)F)ccc1C(=O)N1CCC(n2c(=O)[nH]c3ncc(C4CC5(CC(F)C5)C4)cc32)CC1` (stereo not drawn) [Example 21, 1-[1-[2-amino-4-(trifluoromethoxy)benzoyl]-4-piperidyl]-6-(2-fluorospiro[3.3]heptan-6-yl)-3H-imidazo[4,5-b]pyridin-2-one]: the figures for the half-maximal inhibitory concentration (IC50) (in assay [1] (setting [2]); against ERK5) were 395 nM and 42 nM, respectively.

Take `COCCc1cnc2[nH]c(=O)n(C3CCN(C(=O)c4ccc(OC(F)(F)F)cc4N)CC3)c2c1` [Example 24, 1-[1-[2-amino-4-(trifluoromethoxy)benzoyl]-4-piperidyl]-6-(2-methoxyethyl)-3H-imidazo[4,5-b]pyridin-2-one]: the IC50 turned out to be 502 nM in assay [1] (setting [2]) and 67 nM against ERK5.

As for `CO[C@H]1CC[C@H](c2cnc3[nH]c(=O)n(C4CCN(C(=O)c5ccc(OC(F)(F)F)cc5)CC4)c3c2)CC1` [Example 26, trans-6-(4-methoxycyclohexyl)-1-[1-[4-(trifluoromethoxy)benzoyl]-4-piperidyl]-3H-imidazo[4,5-b]pyridin-2-one], the IC50 in assay [1] (setting [2]) amounted to 235 nM; at ERK5, 118 nM.

Turning to `CO[C@H]1CC[C@@H](c2cnc3[nH]c(=O)n(C4CCN(C(=O)c5ccc(OC(F)(F)F)cc5)CC4)c3c2)CC1` [Example 27, cis-6-(4-methoxycyclohexyl)-1-[1-[4-(trifluoromethoxy)benzoyl]-4-piperidyl]-3H-imidazo[4,5-b]pyridin-2-one], the IC50 in assay [1] (setting [2]) is 1180 nM; against ERK5 it was 536 nM.

As to `Nc1cc(OC(F)(F)F)ccc1C(=O)N1CCC(n2c(=O)[nH]c3ncc(C4CCC4)cc32)CC1` [Example 29, 1-[1-[2-amino-4-(trifluoromethoxy)benzoyl]-4-piperidyl]-6-cyclobutyl-3H-imidazo[4,5-b]pyridin-2-one], the IC50 in assay [1] (setting [2]) was 420 nM; against ERK5, 213 nM.

Regarding `Nc1cc(OC(F)(F)F)ccc1C(=O)N1CCC(n2c(=O)[nH]c3ncc(C45CC(C(F)(F)F)(C4)C5)cc32)CC1` [Example 30, 1-[1-[2-amino-4-(trifluoromethoxy)benzoyl]-4-piperidyl]-6-[3-(trifluoromethyl)-1-bicyclo[1.1.1]pentanyl]-3H-imidazo[4,5-b]pyridin-2-one], the IC50 in assay [1] (setting [2]) worked out at 15300 nM; against ERK5, 310 nM.

For the molecule `Nc1cc(OC(F)(F)F)ccc1C(=O)N1CCC(n2c(=O)[nH]c3ncc(C45CCC(C4)C5)cc32)CC1` [Example 32, 1-[1-[2-amino-4-(trifluoromethoxy)benzoyl]-4-piperidyl]-6-(1-bicyclo[2.1.1]hexanyl)-3H-imidazo[4,5-b]pyridin-2-one], the IC50 in assay [1] (setting [2]) came out at 1140 nM; at ERK5, 347 nM.

On to `Nc1cc(OC(F)(F)F)ccc1C(=O)N1CCC(n2c(=O)[nH]c3ncc(C45CC(C(F)F)(C4)C5)cc32)CC1` [Example 33, 1-[1-[2-amino-4-(trifluoromethoxy)benzoyl]-4-piperidyl]-6-[3-(difluoromethyl)-1-bicyclo[1.1.1]pentanyl]-3H-imidazo[4,5-b]pyridin-2-one], for which the IC50 in assay [1] (setting [2]) was 376 nM; on ERK5, 124 nM.

On to `Nc1cc(OC(F)(F)F)ccc1C(=O)N1CCC(n2c(=O)[nH]c3ncc(C4CCC(F)(F)CC4)cc32)CC1` [Example 35, 1-[1-[2-amino-4-(trifluoromethoxy)benzoyl]-4-piperidyl]-6-(4,4-difluorocyclohexyl)-3H-imidazo[4,5-b]pyridin-2-one], for which the IC50 came out at 695 nM in assay [1] (setting [2]) and 205 nM at ERK5.

`Nc1cc(OC(F)(F)F)ccc1C(=O)N1CCC(n2c(=O)[nH]c3ncc(C4CCCCC4)cc32)CC1` [Example 36, 1-[1-[2-amino-4-(trifluoromethoxy)benzoyl]-4-piperidyl]-6-cyclohexyl-3H-imidazo[4,5-b]pyridin-2-one]: the IC50 in assay [1] (setting [2]) was determined as 888 nM; against ERK5, 285 nM.

On to `Nc1cc(OC(F)(F)F)ccc1C(=O)N1CCC(n2c(=O)[nH]c3ncc(C4CC5CCC4C5)cc32)CC1` (stereo not drawn) [Example 37, 1-[1-[2-amino-4-(trifluoromethoxy)benzoyl]-4-piperidyl]-6-norbornan-2-yl-3H-imidazo[4,5-b]pyridin-2-one], for which the IC50 in assay [1] (setting [2]) amounted to 681 nM; against ERK5, 167 nM.

With `Nc1cc(OC(F)(F)F)ccc1C(=O)N1CCC(n2c(=O)[nH]c3ncc(CC4CCOCC4)cc32)CC1` [Example 39, 1-[1-[2-amino-4-(trifluoromethoxy)benzoyl]-4-piperidyl]-6-(tetrahydropyran-4-ylmethyl)-3H-imidazo[4,5-b]pyridin-2-one], the figures for the IC50 (in assay [1] (setting [2]); at ERK5) were 117 nM and 75 nM, respectively.

Take `O=C(c1ccc(OC(F)(F)F)cc1)N1CCC(n2c(=O)[nH]c3ncc(C4CCOCC4)cc32)CC1` [Example 41, 6-tetrahydropyran-4-yl-1-[1-[4-(trifluoromethoxy)benzoyl]-4-piperidyl]-3H-imidazo[4,5-b]pyridin-2-one]: the results for the IC50 (in assay [1] (setting [2]); on ERK5) were 557 nM and 152 nM, respectively.

As for `O=C(c1ccc(OC(F)(F)F)cc1)N1CCC(n2c(=O)[nH]c3ncc(CC4COC4)cc32)CC1` [Example 42, 6-(oxetan-3-ylmethyl)-1-[1-[4-(trifluoromethoxy)benzoyl]-4-piperidyl]-3H-imidazo[4,5-b]pyridin-2-one], the IC50 in assay [1] (setting [2]) was determined as 354 nM; against ERK5, 136 nM.

Consider `CO[C@H]1CC[C@H](c2cnc3[nH]c(=O)n(C4CCN(C(=O)c5ccc(OC(F)(F)F)cc5N)CC4)c3c2)CC1` [Example 45, trans-1-[1-[2-amino-4-(trifluoromethoxy)benzoyl]-4-piperidyl]-6-(4-methoxycyclohexyl)-3H-imidazo[4,5-b]pyridin-2-one], for which the 50% inhibitory concentration (IC50) was 107 nM in assay [1] (setting [2]) and 29 nM against ERK5.

In the case of `CO[C@H]1CC[C@@H](c2cnc3[nH]c(=O)n(C4CCN(C(=O)c5ccc(OC(F)(F)F)cc5N)CC4)c3c2)CC1` [Example 46, cis-1-[1-[2-amino-4-(trifluoromethoxy)benzoyl]-4-piperidyl]-6-(4-methoxycyclohexyl)-3H-imidazo[4,5-b]pyridin-2-one], the IC50 turned out to be 643 nM in assay [1] (setting [2]) and 199 nM against ERK5.

For the origin of these results see patent publication US20260297087A1, “Pyridoimidazolone Compounds, Preparation Thereof and Therapeutic Uses Thereof” (Sanofi, priority 2023, published 2026).
